The target in assay [1] is T1, GB1 (K28H/Q32H, diHis GB1) (Streptococcus sp. 'group G', UniProt P06654, K254H/Q258H).
T1 construct: gene spg; GB1
Nature of the assay: NMR titration; PCS of the IDA-Co2+ complex. The assay is classed as binding.

Assay [2] addresses T1, GB1 (K28H/Q32H, diHis GB1). The assay is described as follows: NMR (Kd measurement; PCS of the NTA-Co2+ complex). It is filed as binding.

The structures appear in SMILES notation. Where only a bound is given, the exact number is not on record here.

The results in this text go back to article PMC10032564, “Ligand-Capped Cobalt(II) Multiplies the Value of the Double-Histidine Motif for PCS NMR Studies” (Journal of the American Chemical Society, 2023).

The Kd is the free concentration of one partner at which half of the binding sites on the other are occupied at equilibrium, for simple one-to-one binding. A high value points to weaker binding.

T1 sequence (P06654 228-282 K254H/Q258H limits assumed): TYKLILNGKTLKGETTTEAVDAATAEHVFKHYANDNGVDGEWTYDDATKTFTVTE

The molecule `O=C(O)CNCC(=O)O` [IDA-Co2+, iminodiacetic acid] showed a Kd in assay [1] of under 212 µM.

With `O=C(O)CN(CC(=O)O)CC(=O)O` [NTA-Co2+, nitrilotriacetic acid], the Kd in assay [2] was found to be 128 µM.
